For orientation: Kd means the equilibrium constant for the complex coming apart. Low readings indicate higher affinity, high ones lower affinity.

This note sets out measurements from PMC7032066 (Insect biochemistry and molecular biology, 2019).

This assay has as its target T1, M. sexta PGRP1 (Manduca sexta, UniProt Q86RS6).
T1 sequence (Q86RS6 20-191): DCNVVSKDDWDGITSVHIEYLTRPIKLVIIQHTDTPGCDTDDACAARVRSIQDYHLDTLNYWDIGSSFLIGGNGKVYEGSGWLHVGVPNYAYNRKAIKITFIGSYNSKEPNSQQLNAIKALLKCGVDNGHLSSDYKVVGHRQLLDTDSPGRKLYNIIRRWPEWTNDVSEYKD
As to the kind of experiment: SPR. The note with it: HBS-EP pH 7.4 (10 mM HEPES, 150 mM NaCl, 3 mM EDTA, 0.005% polysorbate 20), 25°C. It counts as binding.

Starred links: 1 amine or outer side, 2 acyl side, 3 side chain; linkers in the order of their positions; H or OH if unused. Non-standard residues stand in square brackets, D forms with d. Residues, ends and D or L forms follow the SMILES beside them. Mur = C[C@@H](O[C@H]1[C@H](O)[C@@H](CO)OC(O)[C@@H]1N[*:1])C(=O)[*:2]; d(isoGln) = NC(=O)[C@@H](CCC(=O)[*:2])N[*:1]

`CC(=O)N[C@H]1C(O)O[C@H](CO)[C@@H](O)[C@@H]1O[C@H](C)C(=O)N[C@@H](C)C(=O)N[C@H](CCC(=O)N[C@@H](CCCCN)C(=O)N[C@H](C)C(=O)N[C@H](C)C(N)=O)C(N)=O` (stereo partly shown) [Lys-MPP] (Ac-[Mur]A[d(isoGln)]K[dA][dA]-NH2) registered a Kd of 45.6 µM. In other words, the double-digit micromolar range.
